# Ends that are not written are not given here.
# Assays:
# Type in all cases: cell-based
# [1] = system: HEL cell binding to human ICAM-4Fc; test: Cell adhesion assay: peptide inhibition of HEL cell binding to human ICAM-4Fc; settings: for input cells bound expressed as a percentage of binding to ICAM-4Fc in the absence of peptides: FIG. 8, human ICAM-4Fc coated at 5 μg/ml, peptides 500 μM each, mean of three assays; for input cells bound expressed as a percentage of binding to human ICAM-4Fc in the absence of peptides: FIG. 16, human ICAM-4Fc coated at 2.5 μg/ml, peptides 750 μM each, EDTA 2 mM, mean of two assays
# Description: (§1) Cell adhesion assays were performed as described in Spring et al. 2001 (supra). Immulon4 96 well plates (Dynex Technologies, Billingshurst, United Kingdom) were coated with 1 μg/well goat-antihuman-Fc (Sigma, Poole, United Kingdom) for 24 hours at 4° C., washed three times with PBS and coated with an Fc fusion ICAM-4 protein for 18 hours at 4° C. before blocking with 0.4% BSA PBS for 2 hours at 22° C. Cells were labelled with 10 μg/ml 2′,7′-bis-(2-carboxyethyl)-5-(and-6-) carboxyfluorescein acetoxymethyl ester in assay buffer (IMEM, 2 mM EGTA, 10 μg/ml human ivIgG) for 15 minutes at 37° C. HT1080 cells were activated with 80 μM phorbol myristate acetate prior to both cells being washed with assay buffer containing 2 mM Mn^2+. Cells, at 5×10^4 cells per well, were added to the ICAM-4Fc-coated plates for 30 minutes at 37° C., prior to being given repeated washes in assay buffer and read on a fluorescence microplate reader (excitation 485 nm, emission 530 nm). The percentage of bound cells was calculated after each wash. […] In peptide inhibition studies the appropriate ICAM-4Fc coating concentration for each cell line was pre-determined by titration of ICAM-4Fc and the lowest concentration at which maximal binding was achieved was used to coat the plates
# [2] = system: HT1080 cell binding to human ICAM-4Fc; test: Cell adhesion assay: peptide inhibition of HT1080 cell binding to human ICAM-4Fc
# Description: as §1
# [3] = system: HEL cell binding to murine ICAM-4Fc; test: Cell adhesion assay: peptide inhibition of HEL cell binding to murine ICAM-4Fc; settings: FIG. 12, murine ICAM-4Fc coated at 5 μg/ml, peptides 500 μM each, mean of two assays
# Description: Cell adhesion assays were performed as described in Spring et al. 2001 (supra). Immulon4 96 well plates (Dynex Technologies, Billingshurst, United Kingdom) were coated with 1 μg/well goat-antihuman-Fc (Sigma, Poole, United Kingdom) for 24 hours at 4° C., washed three times with PBS and coated with an Fc fusion ICAM-4 protein for 18 hours at 4° C. before blocking with 0.4% BSA PBS for 2 hours at 22° C. Cells were labelled with 10 μg/ml 2′,7′-bis-(2-carboxyethyl)-5-(and-6-) carboxyfluorescein acetoxymethyl ester in assay buffer (IMEM, 2 mM EGTA, 10 μg/ml human ivIgG) for 15 minutes at 37° C. HT1080 cells were activated with 80 μM phorbol myristate acetate prior to both cells being washed with assay buffer containing 2 mM Mn^2+. Cells, at 5×10^4 cells per well, were added to the ICAM-4Fc-coated plates for 30 minutes at 37° C., prior to being given repeated washes in assay buffer and read on a fluorescence microplate reader (excitation 485 nm, emission 530 nm). The percentage of bound cells was calculated after each wash. Peptide inhibition was performed by incubating the cells with 500 μM peptide at 0° C. for 15 minutes ahead of their addition, still in the presence of 500 μM peptide to the ICAM-4Fc coated plates. In peptide inhibition studies the appropriate ICAM-4Fc coating concentration for each cell line was pre-determined by titration of ICAM-4Fc and the lowest concentration at which maximal binding was achieved was used to coat the plates
# [4] = system: HT1080 cell binding to murine ICAM-4Fc; test: Cell adhesion assay: peptide inhibition of HT1080 cell binding to murine ICAM-4Fc; settings: FIG. 14, murine ICAM-4Fc coated at 5 μg/ml, peptides 500 μM each, mean of two assays
# Description: as §1
# [5] = system: erythroblast adhesion to ICAM-4; test: Peptide inhibition of erythroblast adhesion to ICAM-4; settings: FIG. 19; 5 μg/ml ICAM-4; 5 μg/ml TS2/16 beta 1 activating antibody; peptides 500 μM
# Description: We have utilised the blocking ICAM-4 peptides (i.e., SEQ ID NOs: 9, 10, 11 and 13—see Example 1) in order to inhibit the adhesion of day 4 erythroblasts to ICAM-4 (see FIG. 19). Erythroblast cultures were initiated from CD34 positive cells purified from pooled buffy coat residues (obtained from the National Blood Service, Bristol, UK) and maintained as described in Southcott et al. (1999, Blood 93: 4425-4435). Cell adhesion assays were performed as described in Example 1 above. Immulon-4 96 well plates (Dynes Technologies, Billingshurst, UK) were coated with 1 μg/well goat-antihuman-Fc (Sigma, Poole, UK) for 24 hours at 4° C., washed three times with PBS and coated with 0.25 μg/well Fc fusion ICAM-4 protein (ICAM-4Fc) for 18 hours at 4° C. before blocking with 0.4% BSA PBS for 2 hours at 22° C. Erythroblasts were labelled with 10 μg/ml 2′,7′-bis-(2-carboxyethyl)-5-(and-6-)carboxyfluorescein acetoxymethyl ester (Sigma, Poole, UK) in assay buffer (Iscoves modified Eagle medium, 2 mM EGTA, 0.1% BSA, 10 μg/ml Immune globulin intravenous (human) (Cutter Biological, Newbury, Berks, UK)) for 15 minutes at 37° C. Erythroblasts were washed with assay buffer containing 2 mM Mn^2+. Erythroblasts, at 5×10^4 cells per well, were added to the ICAM-4Fc-coated plates for 30 minutes at 37° C., prior to being cyclically read on a fluorescence microplate reader (excitation 485 nm, emission 530 nm) and washed in assay buffer. The percentage of bound cells was calculated after each wash Peptide inhibition was performed by incubating the cells with 500 μM peptide and 5 μg/ml TS2/16 (beta 1 activating antibody (IBGRL) at 0° C. for 15 minutes before their addition to the ICAM-4Fc coated plates.
# [6] = system: neutrophil adhesion to ICAM-4; test: Peptide and antibody inhibition of neutrophil adhesion to ICAM-4; settings: FIG. 20; 2.5 μg/ml ICAM-4; 10 μg/ml blocking antibodies; peptides 500 μM
# Description: Utilising blocking β integrin subunit antibodies and our blocking ICAM-4 peptides (i.e., SEQ ID NOs: 9, 10, 11 and 13—see Example 1) in a microplate neutrophil adhesion assay. Neutrophils were purified from buffy coats (obtained from the National Blood Service, Bristol, UK) as described in Henderson et al. (1987, Biochem. J. 246: 325-329). Cell adhesion assays were performed as described in Example 1 above. Immulon-4 96 well plates (Dynes Technologies, Billingshurst, UK) were coated with 1 μg/well protein A (Sigma, Poole, UK) for 24 hours at 4° C., washed three times with PBS and coated with 0.125 μg/well Fc fusion ICAM-4 protein (ICAM-4Fc) for 18 hours at 4° C. before blocking with 0.4% BSA PBS for 2 hours at 22° C. Neutrophils were labelled with 10 μg/ml 2′,7′-bis-(2-carboxyethyl)-5-(and-6-)carboxyfluorescein acetoxymethyl ester (Sigma, Poole, UK) in assay buffer (Iscoves modified Eagle medium, 2 mM EGTA, 0.1% BSA for 15 minutes at 37° C. Neutrophils were washed with assay buffer containing 2 mM Mn^2+. Neutrophils, at 5×10^5 cells per well, were added to the ICAM-4Fc-coated plates for 10 minutes at 37° C., prior to being cyclically read on a fluorescence microplate reader (excitation 485 nm, emission 530 nm) and washed in assay buffer. The percentage of bound cells was calculated after each wash. […]
Molecule,input cells bound expressed as a percentage of binding to ICAM-4Fc in the absence of peptides [1],input cells bound expressed as a percentage of binding to human ICAM-4Fc in the absence of peptides [1],"input cells bound expressed as a percentage of binding to human ICAM4Fc in the absence of peptides ([2]; FIG. 10, human ICAM-4Fc coated at 7.5 μg/ml, peptides 500 μM each, mean of three assays)","input cells bound expressed as a percentage of binding to human ICAM-4Fc in the absence of peptides ([2]; FIG. 18, human ICAM-4Fc coated at 5 μg/ml, peptides 750 μM each, EDTA 2 mM, mean of two assays)",input cells bound expressed as a percentage of binding to murine ICAM-4Fc in the absence of peptides [3],input cells bound expressed as a percentage of binding to murine ICAM-4Fc in the absence of peptides [4],effect on adhesion of day 4 erythroblasts to ICAM-4 [5],effect on adhesion between neutrophils and ICAM-4 [6]
"O=C(O)CN(CCN(CC(=O)O)CC(=O)O)CC(=O)O [EDTA, reference compound]",1%,26%,6%,10%,8%,1%,–,–
aWssLahcl (AWSSLAHCL; not fully specified (some residues)) [aWssLahcl peptide],–,50%,–,–,–,–,inhibit adhesion,inhibit this interaction
"rqgktlrgp (RQGKTLRGP; not fully specified (some residues); printed as rqgktlrgp) [rqgktlrgp peptide, reference compound]",107%,105%,–,–,94%,–,had no effect,–
"svpFWVrms (SVPFWVRMS; not fully specified (residues 1, 2, 3, 7, 8, 9)) [svpFWVrms peptide]",61%,64%,–,–,67%,–,had no effect,–
"tRwATSRit (TRWATSRIT; not fully specified (residues 1, 3, 8, 9)) [tRwATSRit peptide]",58%,58%,–,–,58%,–,inhibit adhesion,inhibit this interaction
